Target: IDH1 R132H (Homo sapiens (Human), UniProt O75874, R132H)
Assay: In vitro assay for IDH1m (R132H) inhibitors, NADPH depletion with resazurin/resorufin detection
Format: biochemical
Conditions: IDH1 R132H enzyme, 50 minutes at room temperature; read-out: IDH R132H IC50

IDH1 R132H, sequence (O75874 whole entry R132H): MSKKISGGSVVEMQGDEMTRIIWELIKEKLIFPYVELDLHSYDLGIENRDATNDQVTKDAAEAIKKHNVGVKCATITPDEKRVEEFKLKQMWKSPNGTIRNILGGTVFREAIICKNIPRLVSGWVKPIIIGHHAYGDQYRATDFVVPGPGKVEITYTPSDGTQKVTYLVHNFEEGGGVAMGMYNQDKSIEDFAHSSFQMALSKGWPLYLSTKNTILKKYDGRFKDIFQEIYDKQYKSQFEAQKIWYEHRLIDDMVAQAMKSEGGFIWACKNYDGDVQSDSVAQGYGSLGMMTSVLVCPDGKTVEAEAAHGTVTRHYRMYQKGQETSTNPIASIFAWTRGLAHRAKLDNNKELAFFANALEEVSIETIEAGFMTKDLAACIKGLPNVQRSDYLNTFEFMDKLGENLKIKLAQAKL

`CCOC(=O)CNc1ccc(NS(=O)(=O)c2cc(NC(=O)Nc3cccc(C(F)(F)F)c3)ccc2C)cc1` [Compound 310] was tested, and the IC50 was 1 to 10 µM.
`Cc1cc([N+](=O)[O-])ccc1NC(=O)Nc1ccc(C)c(S(=O)(=O)Nc2ccc(Cl)cc2)c1` [Compound 262] showed an IC50 of 1 to 10 µM.
Compound `Cc1ccc(NC(=O)Nc2cccc(C(F)(F)F)c2)cc1S(=O)(=O)Nc1ccc2cc[nH]c2c1` [Compound 316, N-(1H-indol-6-yl)-2-methyl-5-(3-(3-(trifluoromethyl)phenyl)ureido)benzenesulfonamide] has an IC50 of 1 to 10 µM.
`Cc1ccc(NC(=O)NC2C[C@H]2c2ccccc2)cc1S(=O)(=O)Nc1ccc(Cl)cc1` (some centres unmarked) [Compound 286] was tested, and the IC50 was 1 to 10 µM.
For `Cc1ccc(NC(=O)Nc2cccc(C(F)(F)F)c2)cc1S(=O)(=O)Nc1ccc(C#N)cc1` [Compound 311], the IC50 was 1 to 10 µM.
`Cc1ccc(NC(=O)Nc2cccc(C(F)(F)F)c2)cc1S(=O)(=O)Nc1ccccc1Cl` [Compound 293] showed an IC50 of 1 to 10 µM.
`Cc1ccc(NC(=O)Nc2ccc(Br)cc2)cc1S(=O)(=O)Nc1ccc(Cl)cc1` [Compound 217] was tested, and the IC50 was 1 to 10 µM.
Compound `Cc1ccc(NC(=O)Nc2ccccc2F)cc1S(=O)(=O)Nc1ccc(Cl)cc1` [Compound 218] has an IC50 of 1 to 10 µM.
With `Cc1ccc(NC(=O)Nc2cccc(C(F)(F)F)c2)cc1S(=O)(=O)Nc1cc(F)c(F)cc1F` [Compound 301] the IC50 was 1 to 10 µM.
`COc1ccccc1NC(=O)Nc1ccc(C)c(S(=O)(=O)Nc2ccc(Cl)cc2)c1` [Compound 265] gave an IC50 of 1 to 10 µM.
`Cc1ccc(NC(=O)Nc2cccc(C(F)(F)F)c2)cc1S(=O)(=O)Nc1ccccc1` [Compound 206, 2-methyl-N-phenyl-5-(3-(3-(trifluoromethyl)phenyl)ureido)benzenesulfonamide] was tested, and the IC50 was 1 to 10 µM.
